{
  "source": "patent US9084395B2",
  "about": "“Method to arrest growth of invasive species' seeds while in non-natural environment prior to transport” (priority 2012, dated 2015)",
  "key": {"[1]": {"tested_on": "whitetop (Cardaria draba) seeds", "assay": "Protocol 1 clean seed dip treatment and germination test, whitetop", "format": "in vivo", "conditions": "non-soil environment", "experimental": "(§1) All seeds for a Protocol 1 Test were removed from the flower parts and used as clean seeds. A treatment consisted of 100 seeds with four replications for a total of at least 400 seeds per treatment. In some cases extra seeds were treated to accommodate additional germination tests, if needed. In lots of 100, seeds were first rinsed with water to simulate a wash treatment. These pre-wetted seeds were then dipped for one minute in one of the Treatment Rinse percent solutions per volume as show below. Three quality glyphosate products were used. […] The inert ingredients typically comprise tallow amine, lecithin, algaecide and purified water. […] The surfactants added to the percent solution were a penetrator, comprising methylated seed oil, and a spreader, comprising polyether-polymethylsiloxane-copolymer polyether or silicone polyether copolymer.\n(§2) Seeds were stirred during the dip to assure all seeds were exposed to the solution. Treated seeds were allowed to air dry with the time to dry recorded. Three main seed types were used in the Protocol 1 Test: whitetop (Cardaria draba), spotted knapweed (Centauria maculosa), and diffuse knapweed (Centauria. diffusa). Two additional seed types were used for one treatment each, Russian thistle (Salsola tragus) and Scotch thistle (Onopordum acanthium).\n(§3) When seeds were thoroughly dry after treatment they were packaged and sent for germination testing. […]"}, "[2]": {"tested_on": "Russian thistle (Salsola tragus) seeds", "assay": "Protocol 1 clean seed dip treatment and germination test, Russian thistle", "format": "in vivo", "conditions": "non-soil environment", "experimental": "as §1, §2, §3"}, "[3]": {"tested_on": "Scotch thistle (Onopordum acanthium) seeds", "conditions": "soil application of glyphosate; cited from earlier work"}, "[4]": {"tested_on": "spotted knapweed (Centauria maculosa) seeds", "assay": "Protocol 1 clean seed dip treatment and germination test, spotted knapweed", "format": "in vivo", "conditions": "non-soil environment", "experimental": "as §1, §2, §3"}, "[5]": {"tested_on": "diffuse knapweed (Centauria. diffusa) seeds", "assay": "Protocol 1 clean seed dip treatment and germination test, diffuse knapweed", "format": "in vivo", "conditions": "non-soil environment", "experimental": "as §1, §2, §3"}, "[6]": {"tested_on": "Scotch thistle (Onopordum acanthium) seeds", "assay": "Protocol 1 clean seed treatment, germination test in soil environment, Scotch thistle", "format": "in vivo", "experimental": "as §1, §2, §3"}},
  "note": "Where two headings read alike, the source gives them in different places.",
  "data": [
    {"smiles": "O=C(O)CNCP(=O)(O)O", "note": "[glyphosate]", "values": [
      {"measurement": "control, considering treated seeds that may grow to reproductive maturity", "setting": "[1]", "value": 95, "unit": "%"},
      {"measurement": "control, considering treated seeds that may grow to reproductive maturity", "setting": "[2]", "value": 72, "unit": "%"},
      {"measurement": "control of Scotch thistle", "setting": "[3]", "value": "not controlled"},
      {"measurement": "control, considering treated seeds that may grow to reproductive maturity", "setting": "[4]", "value": 100, "unit": "%"},
      {"measurement": "control, considering treated seeds that may grow to reproductive maturity", "setting": "[5]", "value": 99, "unit": "%"},
      {"measurement": "control, considering treated seeds that may grow to reproductive maturity", "setting": "[6]; Scotch thistle, non-soil environment", "value": 100, "unit": "%"},
      {"measurement": "control of Scotch thistle", "setting": "[6]; direct application of glyphosate to the seed, then placed in soil to germinate", "value": "controlled"}
    ]}
  ]
}
